Assay results: patent US20250332176A1, “TREATMENT FOR FIBROSIS AND INHIBITION OF FIBROSIS” (GALMED RESEARCH AND DEVELOPMENT LTD, priority 2022, published 2025)
Values joined by “and” are separate entries in the source; they are usually repeats but may differ in a detail not shown here. Equal values may be shown once. “Also recorded” adds a separate entry of the source.

Assays:
[1] = system: LX-2, a human hepatic stellate cell line; assay: Mechanistic study in hepatic stellate cells (qPCR, Western, RNAseq, GSEA); type: cell-based; settings: Aramchol 10 μM
Method: Serum-starved LX2 cells were treated with Aramchol™ (10 μM) for 24 or 48 hours. Fibrogenic gene expression and SCD-1 protein expression were measured by qPCR and Western, respectively. RNAseq was performed at 24 and 48 h in duplicate. Differential gene expression was assessed with DSeq2, while gene set enrichment analysis (GSEA) and gene ontology (GO) analyses assessed functionality of gene expression changes. Primary hepatocytes from C57BL/6 mice were harvested by perfusion and treated with Aramchol™ ([…]) for 48 hours in culture. PPAR γ mRNA expression was measured by qPCR.

[2] = system: pts with pre-diabetes or diabetes and biopsy-proven NASH; assay: Global phase 2b randomized placebo-controlled ARREST trial, one-year results; type: in vivo, human
Method: Overweight/obese pts with pre-diabetes or diabetes and biopsy-proven NASH (with NAS≥4; F<4) were included. Liver biopsy and liver fat measurement by MR spectroscopy (LF-MRS) were performed at baseline and week 52. Both read centrally. The primary endpoint was the absolute change from baseline in LF-MRS (600 mg vs. placebo, PLB; mixed model repeated measures). Key secondary endpoints included: NASH resolution without fibrosis worsening, ≥1 stage fibrosis reduction without NASH worsening and ALT reduction. 247 pts from 11 countries (US, Europe, Latin America) were randomized 2:2:1 to Aramchol™ 400 mg QD (N=101), 600 mg QD (N=98) or PLB (N=48). At baseline: 65% females, mean age 54.4 yrs, BMI 32.7 kg/m2, HbA1c 6.6%±1.0% (mean±SD), LF-MRS 28.5%±11.7% (mean±SD); 60% fibrosis stage 2-3 and NAS 5.12±1.00 (mean±SD). 89% of pts completed the study. The results of the study are summarized in FIGS. 16A-16B to FIGS.-20A-20B.

[3] = Phase 1 single dose plasma exposure in healthy volunteers; type: in vivo, human; settings: for AUC: human, plasma, oral, AUC=AUCinf
Method: Table 1 summarizes the reported plasma exposure from three studies-single dose Phase I in healthy volunteers (30-900 mg, AUC=AUCinf); Phase II ARAMCHOL™ 003 repeat dose study (AUC on D84 from 100 & 300 mg QD), Phase IIb Cmin on D84 (400 and 600 mg QD).
Biovailability relative to 30 […] has been calculated as (AUC/Dose)/(AUC/30 mg) and is plotted for this group in FIG. 11.

SMILES: CCCCCCCCCCCCCCCCCCCC(=O)N[C@H]1CC[C@@]2(C)[C@@H](C1)C[C@@H](O)[C@@H]1[C@@H]2C[C@H](O)[C@]2(C)[C@@H]([C@H](C)CCC(=O)O)CC[C@@H]12 [Aramchol™, 3β-arachidylamido-7α, 12α-dihydroxy-5β-cholan-24-oic acid]
- cholesterol biosynthesis (Gene Set Enrichment Analysis) ([1]; 24 or 48 hours): downregulates
- collagen formation (Gene Set Enrichment Analysis) ([1]; 24 or 48 hours): downregulates
- PPARγ mRNA (RT-PCR) ([1]; 24 or 48 hours, serum-starved): upregulates
- SCD-1 mRNA (RT-PCR) ([1]; 24 or 48 hours, serum-starved): downregulates
- fibrogenic genes (RT-PCR) ([1]; 24 or 48 hours, serum-starved): downregulates
- SCD-1 protein (Western Blot, densitometry) ([1]; 24 or 48 hrs): downregulates
- PPARγ mRNA (RNASeq) ([1]; 48 hrs): upregulation
- cholesterol efflux regulatory protein ABCA1 (RNASeq) ([1]; 48 hrs): upregulated
- fibrogenic genes and SCD-1 mRNA (RNASeq) ([1]; 48 hrs): downregulation; also recorded: downregulates
- pts progressed to cirrhosis ([2]; 400 mg QD, week 52): 7.5%
- pts with ≥5% absolute reduction in liver fat ([2]; 400 mg QD, week 52): 37%
- liver fat by MR spectroscopy (LF-MRS), absolute change from baseline vs PLB ([2]; 400 mg QD, week 52, p=0.045): significantly reduced
- effect on ballooning (improvement ≥1 point; ballooning 0 at end of study) ([2]; 600 mg): statistically significant effect
- pts progressed to cirrhosis ([2]; 600 mg QD, week 52): 1.3%
- liver fat by MR spectroscopy (LF-MRS), absolute change from baseline vs PLB ([2]; 600 mg QD, week 52, p<0.066): significantly reduced
- pts with NASH resolution without fibrosis worsening ([2]; 600 mg QD, week 52, vs 5.0% PLB): 16.7%
- pts with ≥1 stage fibrosis reduction without NASH worsening ([2]; 600 mg QD, week 52, vs 17.5% PLB (p=0.21)): 29.5%
- pts with ≥5% absolute reduction in liver fat ([2]; 600 mg QD, week 52, vs 24% on PLB (p<0.028)): 47%
- OR for NASH resolution without fibrosis worsening vs PLB ([2]; 600 mg QD, 95% CI: 0.99-22.66, p=0.051): 4.74
- Discontinuation due to adverse events (AE) ([2]; 1-year treatment): < 5%
- serious AE, pts ([2]; 1-year treatment, without a difference between arms): 10%
- ALT vs PLB ([2]; both doses (400 mg and 600 mg QD), p<0.001, dose response): significantly reduced
- HbA1c vs PLB ([2]; both doses (400 mg and 600 mg QD), p<0.007, dose response): significantly reduced
- AST vs PLB ([2]; both doses (400 mg and 600 mg QD), p=0.002, dose response): significantly reduced
- safety and tolerability ([2]; one year): excellent safety and tolerability
- exposure (AUC) of single 900 mg dose higher than single 300 mg dose [3]: 1.35 fold
- decrease in AUC/Dose across the dose range ([3]; 30-900 mg): four-fold
- AUC ([3]; single dose 30 mg): 11900 ng·h/mL
- AUC ([3]; single dose 100 mg): 25700 ng·h/mL
- AUC ([3]; single dose 300 mg): 64300 ng·h/mL
- AUC ([3]; single dose 900 mg): 86900 ng·h/mL
- AUC/Dose ([3]; single dose 30 mg): 397 ng/mL · h/(mg/kg)
- Relative bioavailability (AUC/Dose normalized to 30 mg HV data) ([3]; single dose 30 mg): 1
- AUC/Dose ([3]; single dose 100 mg): 257 ng/mL · h/(mg/kg)
- Relative bioavailability (AUC/Dose normalized to 30 mg HV data) ([3]; single dose 100 mg): 0.65
- AUC/Dose ([3]; single dose 300 mg): 214 ng/mL · h/(mg/kg)
- Relative bioavailability (AUC/Dose normalized to 30 mg HV data) ([3]; single dose 300 mg): 0.53 and 0.54
- AUC/Dose ([3]; single dose 900 mg): 97 ng/mL · h/(mg/kg)
- Relative bioavailability (AUC/Dose normalized to 30 mg HV data) ([3]; single dose 900 mg): 0.24
